Laboratory results from patent publication US20120141788A1, “PROCESS AND DEVICE FOR THE PRECIPITATION OF AN ORGANIC COMPOUND” (Fujifilm Manufacturing Europe B.V., priority 2006, published 2012).

How the values were obtained:
[1] = Particle size distribution of the precipitate measured with a Malvern Mastersizer 2000; type: physicochemical; conditions: precipitated particles; for D50 of this batch / D90 of this batch: ethanol/water, Malvern Mastersizer 2000
Text: Preferably, the precipitated organic compound is in particulate form and has a D50 of less than 500 nm, more preferably less than 400 nm, even more preferably of less than 300 nm, and in particular less than 200 nm. The D50 can be measured by techniques known in the art, e.g. laser diffraction according to method ISO 13320-1 using e.g. a Malvern Mastersizer 2000 particle size analyser.
The particle size distribution is wide, including many particles of 10 μm edge length or more. […] The D50 of this batch is 14.59 μm. So 50% of all particles have a volume median size which is smaller than 14.59 μm. The D90 of this batch is 36.22 μm.
Particle size distribution was measured with a Malvern Mastersizer 2000. The D50 of this batch is 9.17 μm. The D90 of this batch is 18.72 μm. (FIG. 8)

[2] = Saturation concentration in ethanol; type: physicochemical; conditions: 325 K

Structure (SMILES) | particle size distribution (shape, in words) [1] | D50 of this batch [1] | D90 of this batch [1] | saturation conc. in EtOH [2]
CC(=O)[C@H]1CC[C@H]2[C@@H]3CC=C4C[C@@H](O)CC[C@]4(C)[C@H]3CC[C@]12C [Comparative Example 1, pregnenolone] | wide | 14.59 μm | 36.22 μm | –
CC(=O)[C@H]1CC[C@H]2[C@@H]3CC=C4C[C@@H](O)CC[C@]4(C)[C@H]3CC[C@]12C [Comparative Example 3, pregnenolone] | narrower particle size distribution than Comparative Example 2 | 9.17 μm | 18.72 μm | –
CC(=O)[C@H]1CC[C@H]2[C@@H]3CC=C4C[C@@H](O)CC[C@]4(C)[C@H]3CC[C@]12C [Inventive Example 1, pregnenolone] | narrow | 9.17 μm | 18.72 μm | –
CC(=O)[C@H]1CC[C@H]2[C@@H]3CC=C4C[C@@H](O)CC[C@]4(C)[C@H]3CC[C@]12C [pregnenolone] | – | – | – | 34 g/L
